# Measurements: patent publication US7173014B2, “HIV-specific synthetic oligonucleotides and methods of their use” (priority 1997, dated 2007)
# Test system: monocyte-macrophage-tropic strains BaL and ADA
# Assay: Anti-HIV assay in fresh human monocyte-macrophages
# Assay type: cell-based, HIV-1
# Protocol: In addition to these T-tropic strains, the activity of the compounds was also evaluated against the monocyte-macrophage strains BaL and ADA. Oligos 12 and 32 according to the invention, as well as Oligo 41 are active against low passage clinical T-tropic strains of HIV-1. The activity of the compounds varies from strain to strain. The compounds were not active against the monocyte-macrophage-tropic strains BaL and ADA.
# For isolation of adherent cells, 3×10^6 non-PHA stimulated peripheral blood cells were resuspended in Hanks buffered saline (with calcium and magnesium) supplemented with 10% human AB serum. The cells were placed in a 24-well microtiter plate at 37° C. for 2 hours. Non-adherent cells were removed by vigorously washing six times. The adherent cells were cultured for 7 days in RPMI 1640 tissue culture medium with 15% fetal bovine serum. The cultures were carefully monitored for confluency during this incubation period. Infection of the cells was performed with the monocytotropic HIV-1 strains BaL or ADA and the matched pair of AZT-sensitive and AZT-resistant virus isolates. Each of these virus isolates was obtained from the NIAID AIDS Research and Reference Reagent Program. High titer pools of each of these viruses have been harvested from infected cultures of peripheral blood adherent cells and frozen in 1.0 ml aliquots at −80° C. Monocyte-macrophage monolayers were infected at an MOI of 0.1. Compounds to be evaluated in the monocyte-macrophage assay are added to the monolayers shortly before infection in order to maximize the potential for identifying active compounds.
# At 2 days post-infection, the medium was decanted and the cultures washed twice with complete medium in order to remove excess virus. […] Control curves are generated in each assay to accurately quantify the amount of capsid protein in each sample. Data was obtained by spectrophotometric analysis at 450 nm using a plate reader (Molecular Devices Vmax). P24 concentrations were calculated from the optical density values by use of the Molecular Device software package Soft Max.
substance,measurement,value
"Oligo 41: oligonucleotide having SEQ ID NO:6; sequence not printed, not listed in TABLE 2 (UCGCACCCATCTCTCTCCUUC; chemistry not given here)",activity against monocyte-macrophage-tropic strains BaL and ADA,not active
